row,Structure (SMILES),melting point
1,O=C(CCc1c[nH]c2ccccc12)NCC1CNc2ccccc2O1 (stereo not given),145 to 146 °C
2,CC(C)(C)c1cc(CNn2ccnc2)cc(C(C)(C)C)c1O,171 to 174 °C
3,N=C(N)Nc1nc2ccc(C(F)(F)F)cc2[nH]1,206 to 209 °C
4,CCN(CCO)CCCNc1ncc2cc(-c3c(Cl)cccc3Cl)c(N)nc2n1,201 to 204 °C
5,O=C1Cc2cc3c(CCC4CCN(Cc5ccccc5)CC4)noc3cc2N1,118 to 119 °C
6,C=Cc1ccc2c(c1)C[C@H](C(=O)N1CCC[C@H](C)C1)N2c1cccnn1,206 to 209 °C
7,Nc1cc(-c2ccco2)ccc1Nc1cccc(-n2cccc2)c1,163 to 164 °C
8,CN1CCC(c2nn(CCCO)c3ccccc23)CC1,96 to 98 °C
9,CCN1CCN(c2ccc(-c3[nH]nc4c3C(=O)c3c(NC(=O)NN5CCOCC5)cccc3-4)cc2)CC1,245 °C
10,CCSc1noc(-c2ccc(NS(C)(=O)=O)c(Oc3ccc(F)cc3F)c2)n1,116 to 119 °C
11,CCC(C)Cc1c(-c2ccc([N+](=O)[O-])cc2Cl)c(C)nc2ncnn12 (stereo not given),158 to 162 °C
12,CCSc1nc(Cl)nc2cccnc12,101 to 103 °C
13,Cn1c(SCSC#N)nc2ccccc2c1=O,118 to 121 °C
14,CN1CCN(c2cccc(-n3cnc4cc(C#N)ccc43)c2)CC1,158 to 160 °C
15,NCc1ccc2c(c1)c(C1CCN(CCN3CCNC3=O)CC1)cn2-c1ccc(F)cc1,171 to 175 °C
16,CCn1nnnc1C(C=CC=O)=C(c1ccc(F)cc1)c1ccc(F)cc1,163 to 165 °C
17,NS(=O)(=O)c1ccc(-c2cnn(-c3ccc(F)c(Cl)c3)c(=O)c2-c2ccc(F)cc2)cc1,208 to 210 °C
18,Oc1c(C(O)C(F)(F)F)cnc2c(-c3cc(-c4ccccc4)cs3)cnn12 (stereo not given),265 to 290 °C
19,CN(CC1CC(c2ccc(F)cc2)=NO1)C1CCC(c2ccc3[nH]c(=O)oc3c2)CC1 (stereo not given),109 to 114 °C

row,Structure (SMILES),melting point
1,Cc1ccc(-c2ccccc2)cc1Cn1c(C)nn(C)c1=O,139 °C
2,CC(C)(O)C(O)(C(F)(F)F)C(F)(F)F,48 °C
3,CC(C)c1nc(C2CCCCC2)cc(-c2ccc(F)cc2)c1CO,101 to 104 °C
4,Cc1cc(N)nc(N)n1,183 °C
5,CNc1nc(N)nc(NC)n1,291 °C
6,FC(F)(F)c1nnnn1-c1ccc(OCc2ccccc2)c(Br)c1,66 to 68 °C
7,COC1(c2csc(Sc3ccc4c(c3)CCC(=O)N4C)c2)CCOCC1,106 to 108 °C
8,CNc1c(F)cc2c(=O)c(C(=O)O)cn(-c3ccc(F)c(N)c3)c2c1Cl,162 to 166 °C
9,CC(c1ccc(-c2ccccc2)c(F)c1)c1nc(N)no1 (stereo not given),174 to 175 °C
10,CC1CCc2nc(Cl)nc(-c3ccc(F)cc3)c2C1 (stereo not given),106 to 108 °C
11,Cn1ncc2c1-c1c(Oc3ncccn3)sc(C(=O)O)c1CC2,256 to 258 °C
12,CCCc1c(C(=O)C(C)C)c2ccc(C(=O)O)cc2n1Cc1ccccc1C,186 to 188 °C
13,N#CC1c2ccccc2-c2ccccc21,152 to 154 °C
14,CN(C)C(=O)c1nc(-c2ccncc2)nc2c1c1ccc(Cl)cc1n2C,268 to 269 °C
15,COC(=O)C(Oc1nc(OC)cc(OC)n1)C(C)(OCc1ccccc1)c1ccccc1 (stereo not given),115 to 117 °C
16,O=C(Nc1ccc(C(F)(F)F)cn1)Oc1ccccc1,203 °C
17,Nc1ccc(S(=O)(=O)N2CCN(c3ccc(F)cc3)CC2)cc1,180 to 182 °C
18,COc1ccc2c(c1)C13CCCOC1(C)C(C2)N(C#N)CC3 (stereo not given),157 to 158 °C
19,COCCCNc1cc(C(Sc2ccc(Cl)cc2)c2cc(F)ccc2F)c(Cl)cn1 (stereo not given),146 to 148 °C

row,Structure (SMILES),melting point
1,CCS(=O)(=O)c1ccc(C2=C(c3ccc(S(C)(=O)=O)cc3)OC(C)(C)C2=O)cc1,198 to 203 °C
2,Cc1ccccc1C1C(C#N)=C(c2ccccc2)Nc2n[nH]cc21 (stereo not given),246 °C
3,O=C1NC(=S)SC1=C(c1ccccc1)c1ccccc1,192 to 194 °C
4,COC(=O)c1ccccc1-c1ccc(CBr)cc1,51 to 53 °C
5,Cc1ccccc1C(=O)P(=O)(c1ccccc1)c1ccccc1,107 °C
6,CS(=O)(=O)c1ccc(/C(=C(/CO)CCO)c2ccc(Cl)cc2)cc1,159 to 160 °C
7,O=C(Nc1ccc(O)cc1)C(=O)Nc1ccc(O)cc1,> 250 °C
8,COc1cccc(-c2ccc(C3C(CCC(O)c4ccc(F)cc4)C(=O)N3c3ccc(F)cc3)cc2)c1OC (stereo not given),101 °C
9,Cn1c(-c2ccccc2)cc(O)c(C(=O)c2ccccc2)c1=O,149 to 151 °C
10,Cc1cc(C)c2c(c1Br)CC=C2,34 °C
11,COc1cc2c(cc1C(F)(F)F)N(C(=O)Nc1ccc3c(ccn3Cc3cccnc3)c1)CC2,243 to 246 °C
12,Ic1ccc2c(c1)ncn2-c1cccc(-c2cncnc2)c1,197 to 199 °C
13,COC(=O)Cn1nnnc1-c1ccc(Cl)cc1,156 to 158 °C
14,O=C(O)c1cccc(-c2ccc3c(c2)N(c2ccc(Cl)c(Cl)c2)CC3)c1,205 to 206 °C
15,CCCCCCCN(CC1(c2ccccc2)CCCC1)C(=O)Nc1ccc(F)cc1F,88 to 90 °C
16,C/C(=C\c1cc(F)cc(F)c1)C(=O)O,148 °C
17,Cn1cc(C2=C(c3cn(C)c4c([N+](=O)[O-])cccc34)C(=O)NC2=O)c2ccc(F)cc21,259 to 261 °C
18,COc1cc(C)n2nc(SCc3ccccc3)nc2n1,112 to 115 °C
19,COc1ccc(-n2c3ccccc3c3cc(C=C(C#N)c4cc(C(F)(F)F)cc(C(F)(F)F)c4)ccc32)cc1,198 to 200 °C

# Now from value to compound:
row,melting point,Structure (SMILES)
1,146 to 147 °C,CCC(=O)c1ccc2c(c1)N(C(C)=O)c1ccccc1S2
2,210 to 213 °C,CN(CCO)C(=O)c1c(-c2ccc(C(C)(C)C)cc2)n(C)n(-c2ccc(C#N)cc2)c1=O
3,146 to 147 °C,CCCOc1cc(NC(=O)C[C@H]2O[C@H](c3cccc(OC)c3OC)c3cc(Cl)ccc3N(CC(C)(C)COC(C)=O)C2=O)cc2cc(C(=O)OC)oc12
4,64 to 65 °C,COc1c2c(c(OC)c(OC)c1OC)CC(CCCCCCCCN1C(=O)c3ccccc3C1=O)C2
5,135 to 137 °C,CC(C)(C(=O)Nc1cccc(Cl)c1)N1OCC(CI)=C(c2ccccc2)C1=O
6,> 250 °C,Cc1cc(COc2ccc(C(N)=O)cc2)c2c(N)c(C(N)=O)sc2n1
7,93.5 to 94 °C,Cc1cc(C)c(S(=O)(=O)OCCC2CCN(S(=O)(=O)c3c(C)cc(C)cc3C)CC2)c(C)c1
8,146 to 147 °C,Cn1ncc2c1-c1c(SC(C)(C)C)sc(C(N)=O)c1CC2
9,57 to 60 °C,CCOC(=O)C1(C(=O)Nc2ccc(Br)cc2C)OC1C (stereo not given)
10,180 to 181 °C,COC(=O)c1cn2c(C)c(C)sc2n1
11,189 to 190 °C,COC(=O)c1c(C)n(-c2ccc(Cl)cc2)c(C)cc1=O
12,125 to 130 °C,O=C(c1cc(N2CCCCC2)ccn1)N(O)CCCc1ccccc1
13,212 to 214 °C,COC1(c2ccccc2)OC=C(c2ccc(C(=O)O)cc2)C1=O (stereo not given)
14,263 to 264 °C,CCOC(=O)Cc1ccc(Cc2n[nH]c3c2c(=O)n(-c2ccccc2)c2ncccc32)cc1
15,147 to 149 °C,CC1(C)CN(CC2Cc3ccccc3O2)c2nc(-c3ccncc3)cc(=O)n2C1 (racemic)
16,62 to 64 °C,COCCOC(=O)CCc1cc(C(C)(C)C)c(O)c(C(C)(C)C)c1
17,78 °C,CCOC(=O)c1ccc(NCc2cc(Br)ccc2OCc2ccccc2)c(OC)c1
18,115 to 117 °C,COC(=O)[C@]1(O)Cc2c(OC)ccc(OC)c2C2(C1)SCCS2
19,123 to 125 °C,COC1=C(C#N)C(=O)N(C)C1=O
20,107 to 108 °C,COC(=O)/C(=C/C=C/c1cn(C(C)=O)c2ccccc12)OC
21,138 to 139 °C,CC(C)(C)OC(=O)N1CCC2(CC1)CC(=O)N(OCC#N)C2=O
22,221 °C,COc1ncccc1-c1ccc(OC2SCC(OC(C)=O)C(OC(C)=O)C2OC(C)=O)c(Cl)n1 (stereo not given)

row,melting point,Structure (SMILES)
1,72 to 75 °C,CC(C)OC(=O)c1cc(-n2c(Cl)nc(C(F)(F)F)cc2=O)c(F)cc1Cl
2,100 to 102 °C,CCOC(=O)c1cc(C)n(-c2cccc(C(C)=O)c2)c1-c1ccccc1
3,87 to 89 °C,CCOC(OCC)c1cn2cccc(CO)c2n1
4,174 to 176 °C,Cn1c(COc2ccc(CC3SC(=O)NC3=O)cc2)cc2ccccc21 (stereo not given)
5,97 to 103 °C,COC(=O)c1ccc2nc(C)[nH]c2c1C(=O)OC
6,202 to 204 °C,CCCC1C(=O)C(NC(=O)C2CCc3ccccc3C2)=C(N)C(CCC)C1=O (stereo not given)
7,265 to 267 °C,CC(=O)NC[C@H]1CN(c2ccc(N3CCC(=C(C#N)c4ccccn4)CC3)c(F)c2)C(=O)O1
8,77 to 78 °C,CCOC(=O)C(CC#N)(C(=O)OCC)C1COC(=O)C1 (stereo not given)
9,205 to 206 °C,COC(=O)C1=C(C)NC(C)=C(c2nc(CCl)ns2)C1c1cccc([N+](=O)[O-])c1 (stereo not given)
10,> 300 °C,CC(C)(C)C(=O)Nc1nc(O)c2cc(CCc3ccc(C(=O)O)cc3)cnc2n1
11,126 to 130 °C,CC(C)CC(C=O)NC(=O)C(Cc1c[nH]cn1)NC(=O)C1Cc2c([nH]c3ccccc23)CN1C(=O)OCc1ccccc1 (stereo not given)
12,128 °C,C=C(C)C(=O)OCCCCc1ccc(OC(F)(F)c2c(F)cc(-c3ccc(CCCCOC(=O)C(=C)C)cc3F)cc2F)cc1
13,189 °C,N=C(NO)c1ccc(S(N)(=O)=O)s1
14,250 to 253 °C,Nc1ccn(/C=C2/CC2(CO)CO)c(=O)n1
15,158 to 161 °C,CC(=O)c1ccc(N)c(C(=O)c2ccccc2)c1
16,48 to 50 °C,CC(C)(C)C(=O)C(Br)Cc1ccc(Cl)cc1 (stereo not given)
17,148 to 150 °C,CC(C)CSc1cc(C(=O)O)cc(N)c1Oc1ccccc1
18,175 to 177 °C,CN1C(=O)C2(COc3cc4c(cc32)OCCO4)c2c(NC(=O)NC3CCCCC3)cccc21 (stereo not given)
19,153 to 155 °C,COc1cc(NCCN(C)Cc2ccccc2)ccc1C(N)=O
20,175 to 176 °C,CC1=C(C(=O)OCc2ccccc2)C2CCC(CCOC(=O)c3ccc(Br)cc3)N2C(=NC(=O)c2ccc(Br)cc2)N1 (stereo not given)
21,123 to 124 °C,CCCOc1ccccc1-c1nc2nc(N(CCC)CCC)ncc2c(=O)[nH]1

# Source: a melting point compilation (Tetko et al.; mined from patent text by program, amines drawn as free bases though some values may be those of a salt)
